Where a SMILES comes first, the peptide text is derived from it.
Columns and labels:
fever = conditions: relative to parent peptide or α-MSH(11-13); cited from earlier work
inflammation = conditions: relative to L-form tripeptide α-MSH (11-13); cited from earlier work
psoriatic lesions = assay: Topical treatment of psoriatic lesions in a subject, KPV in mineral oil vs contralateral Hydrocortisone; conditions: for Adverse reactions or side effects: treatment continued for eleven days
Source text: In a subject with a diagnosed and confirmed greater than ten year history of dermatologically symptomatic psoriasis, KPV was used to treat inflammation, scaling, dryness, pain, erythema, and pruritis. The subject had psoriatic lesions located bilaterally on the volar (palm side) surface of the forearms. The lesions varied in time of existence for greater than ten years with variagated presentation. The subject presented no opportunistic infection of the integument secondary to the psoriatic lesions.
KPV in a crystalline form was prepared as disclosed in U.S. Pat. No. 5,028,592. Mineral oil was chosen as a carrier for the KPV preparation. One milligram of KPV was administered topically on the affected areas of the integument at a frequency of twice daily. For comparison purposes, a standard dosage amount of Hydrocortisone was placed on the contralateral area of the body of the subject that also manifested the dermatological sequelae of psoriasis. Topical administration was accomplished with standard cotton tipped applicators.
This treatment was continued for eleven days.

Compound: 8-13 sequence: α-MSH 8-13 fragment (RWGKPV; Designed polypeptide with anti-inflammatory, anti-bacterial, anti-fungal and antipyretic properties.)
- Antipyretic potency (fever): greater than that of the 11-13 sequence

Compound: α-MSH sequence (4-10): the "core" α-MSH sequence (4-10)
- Antipyretic potency (fever): little antipyretic and anti-inflammatory activity
- Anti-inflammatory activity / general potency (inflammation): little antipyretic and anti-inflammatory activity

Compound: C[C@]12CCC(=O)C=C1CC[C@@H]1[C@@H]2[C@@H](O)C[C@@]2(C)[C@H]1CC[C@]2(O)C(=O)CO [Hydrocortisone]
- Improvement of symptoms associated with the psoriatic lesions (psoriatic lesions; KPV one milligram twice daily in mineral oil, Hydrocortisone standard dosage on contralateral side): showed improvement
- Period of symptom control / relief from symptoms (psoriatic lesions; psoriatic lesions on forearms): three hours
- Adverse reactions or side effects (psoriatic lesions): telangictasia and atrophy of skin

Compound: Ac-[D-K11]-α-MSH 11-13-NH2
- Anti-inflammatory activity / general potency (inflammation): same general potency as the L-form

Compound: CC(C)[C@H](NC(=O)[C@@H]1CCCN1C(=O)[C@@H](N)CCCCN)C(=O)O [KPV, lysine-proline-valine] (H-Lys-Pro-Val-OH)
- Adverse reactions or side effects (psoriatic lesions): No adverse reactions or side effects

Compound: 9-13 sequence: α-MSH 9-13 fragment (WGPKV; Designed polypeptide with anti-inflammatory, anti-bacterial, anti-fungal and antipyretic properties.)
- Antipyretic potency (fever): almost devoid of activity

Compound: 10-13 sequence: α-MSH(11-13) with glycine added to form the 10-13 sequence (GKPV; Designed polypeptide with anti-inflammatory, anti-bacterial, anti-fungal and antipyretic properties.)
- Antipyretic potency (fever): slightly decreased potency

Compound: [Nle^4,D-Phe^7]-α-MSH
- Antipyretic potency (fever): approximately ten times more potent than the parent peptide

From patent US7232804B2, “Use of KPV tripeptide for dermatological disorders” (Zengen, Inc., priority 2001, dated 2007)
